Experimental data as given in US20120251628A1, “COMPOSITIONS AND METHODS FOR TREATMENT OF CANCER” (priority 2011, published 2012).

Legend:
microtubules = experiment: Immunohistochemistry of microtubules in HUVECs (confocal microscopy); type: cell-based, Human; conditions: 1 uM, 5 uM and 10 uM, 24 and 48 hours, concentration dependent
Method: HUVECs were cultured in a confocal dish (made by SPL, Korea) with F-12K (Sigma) medium containing 10% FBS and endothelial cell growth supplement (ECGS, E2759, Sigma). After cultivation for 24 hours, the cells were treated with sodium meta arsenite at a concentration of 1 uM, 5 uM and 10 uM. At 24 hours and 48 hours after treatment, the cells were fixed with 3.7% paraformaldehyde at room temperature for 10 minutes. After washing with phosphate buffered saline (PBS) solution three times, the cells were treated with 0.15% Triton X-100 for 15 minutes and then washed three times with PBS solution. After blocking with 2% bovine serum albumin (BSA, Sigma) at room temperature for 60 minutes, the cells were washed three times with PBS solution. Monoclonal antibody against α-tubulin (SantaCruze, sc-32293) was reacted with the cells at room temperature for one hour and then the cells were washed three times with the PBS solution. The cells were then reacted with rat anti-mouse IgG1 secondary antibody (Pharmigen, #A85-1) conjugated to FITC. After being washed three times with PBS solution, they were analyzed using a confocal laser scanning microscope (OLYMPUS FV500,1×81).

[1] = tested on: CT26 colon carcinoma cell line; experiment: Histologic analysis (hematoxylin and eosin) of tumor tissues; type: in vivo, mice; conditions: 10 mg/kg intraperitoneal; 8, 24 and 48 hours after injection; with increasing exposure time; from the central part of the tumors
Method: (§1) Seven-week-old, female, specific-pathogen-free (BALB/c) white mice (weight: approximately 20 g) purchased from ORIENTBIO Inc. (Seoul Korea) were subcutaneously injected with 2×10^6 cells of the CT26 colon carcinoma cell line per mouse. When the tumor size reached 3 mm in diameter, the control group was injected with a phosphate buffered saline (PBS) solution with 5% dextrose while the experimental group was intraperitoneally injected with 100 μL of KML001 at a concentration of 10 mg/kg with 5% dextrose. At 8, 24 and 48 hours after injection, liver, spleen and tumor tissue samples were taken and placed into a 37% solution of formaldehyde for 24 hours. The tissues were inserted into paraffin and sectioned at 4 μm on a microtome (made by SLEE MAINZ GmbH in Germany) and the sections were placed on slides.

[2] = Histologic analysis of normal organ tissues for ischemic damage; type: in vivo, mice; conditions: 10 mg/kg intraperitoneal; 8, 24 and 48 hours after injection
Method: as §1

tumors = experiment: Cell and animal experiments with KML001 injected after tumors were generated; type: in vivo
β-tubulin mRNA = experiment: RT-PCR of tubulin mRNA from HUVECs; type: cell-based, Human; conditions: 5 uM, 10 uM and 20 uM, 24 hours and 48 hours after treatment
Method: (§2) To determine whether the level of tubulin gene expression is responsible for the change in amount of tubulin protein observed in Example 5, RT-PCR was performed. HUVECs (obtained from ATCC) were cultivated in F25 culture flasks containing F-12K (Sigma) medium supplemented with 10% FBS and endothelial cell growth supplement (ECGS, E2759, Sigma). After cultivation for 24 hours, the cells were treated with sodium meta arsenite at concentrations of 5 uM, 10 uM and 20 uM. […] Total RNA was extracted using Trizol (Invitrogen, USA) and alcohol precipitation. 1 ug of total RNA was used for reverse transcriptase and dT was used for cDNA synthesis. The primer for synthesized cDNA and α-tubulin (sense: 5′-ATTGTGCCTTCATGGTAGAC-3′ (SEQ ID NO. 1), antisense: 5′-TTCTGTCAGGTCAACATTCA-3′) (SEQ ID NO. 2), the primer for β-tubulin (sense: 5′-AACGACCTCGTCTCTGAGTA-3′ (SEQ ID NO. 3), antisense: 5′-AATTCTGAGGGAGAGGAAAG-3′) (SEQ ID NO. 4) and GAPDH primer set (sense: 5′-ACCACTTTGTCAAGCTCATT-3′ (SEQ ID NO. 5), antisense: 5′-AGTGAGGGTCTCTCTCTTCC-3′) (SEQ ID No. 6) were used for denaturation at 95° C. for four minutes. After the reactions at 23 cycles at 95° C. for 30 seconds, at 52° C. for 30 seconds and at 72° C. for 40 seconds, PCR was performed at 72° C. for four minutes. The PCR product was confirmed by 1.5% agarose gel electrophoresis.

α-tubulin mRNA = experiment: RT-PCR of tubulin mRNA from HUVECs; type: cell-based, Human; conditions: 5 uM, 10 uM and 20 uM, 24 hours and 48 hours after treatment
Method: as §2

α-tubulin = experiment: Western blot of isolated (soluble) and polymerized tubulin from HUVECs; type: cell-based, Human; conditions: 1 uM, 10 uM and 20 uM, 24 hours, higher concentration
Description: To investigate whether such apoptosis phenomenon is caused by a cytoskeletal abnormality that affects cell division and cell differentiation, the change in α-tubulin expression in the cytoskeleton was identified by the division of tubulin into isolated form (soluble, S) and polymerized form (ppt, P). HUVECs (obtained from ATCC) were cultivated in F25 culture flasks containing F-12K (Sigma) medium supplemented with 10% FBS and endothelial cell growth supplement (ECGS, E2759, Sigma). After cultivation for 24 hours, the cells were treated with sodium meta arsenite at a concentration of 1 uM, 10 uM and 20 uM. Cells were collected 24 hours after treatment. The collected cells were suspended in RIPA buffer (50 mM Tris, pH 7.5, 150 mM NaCl, 1% NP-40, 0.5% sodium deoxychloate, 0.1% SDS, protease inhibitor) at room temperature for 10 minutes and then centrifuged for 30 minutes at 22° C. at 13,200 rpm to separate the supernatant liquid from the sediment. RIPA solution was added to the sediment in the same amount and the sediment was crushed using an ultrasonic cell crusher. The protein from the supernatant liquid and the sediment were assayed using a BCA protein kit (Thermo, 23227) and then the same amount of protein (3 μg) was mixed with protein sample buffer and it was warmed up in a water bath in boiling water at 100° C. for five minutes. SDS-PAGE was conducted on a 10% gel. […]

[3] = injected after tumors were generated

O=[As][O-].[Na+] [sodium meta arsenite]
total amount of microtubules (microtubules): reduction in the total amount of microtubules | scope of necrotic cell death in the tumor tissues [1]: observed to increase | ischemic damage in liver, spleen or kidney tissues [2]: No ischemic damage was observed | apoptosis (tumors; cell experiments and animal experiments): occurred dose-dependently | necrotic phenomena in tumor tissues (tumors; [3]): occurred | reduction in tumor volume (tumors; [3]): no effect | β-tubulin mRNA level (β-tubulin mRNA): no change | α-tubulin mRNA levels (α-tubulin mRNA): no change | protein level in sediment (polymerized tubulin) (α-tubulin): reduced the protein level | protein level in supernatant liquid (isolated tubulin) (α-tubulin): reduced the protein level
